Measured values taken from patent US20190374601A1, “METHODS FOR TREATING FUNGAL INFECTIONS” (priority 2017, published 2019).
Starred links: 1 amine or outer side, 2 acyl side, 3 side chain; linkers in the order of their positions; H or OH if unused. Positions of bridges follow the written chain, without caps; N, C: chain ends. Non-standard residues stand in square brackets, D forms with d. Residues, ends and D or L forms follow the SMILES beside them. *: point of attachment. Orn(4R-OH,5R-OCH2CH2NMe3+) = C[N+](C)(C)CCO[C@@H](N[*:3])[C@H](O)C[C@H](N[*:1])C(=O)[*:2]; pTerphenylCO(4''-OnC5H11) = CCCCCOc1ccc(-c2ccc(-c3ccc(C(=O)*)cc3)cc2)cc1; hTyr(3S-OH,4S-OH) = N[C@H](C(=O)O)[C@H](O)[C@@H](O)c1ccc(O)cc1; Pro(3S-OH,4S-Me) = C[C@H]1CN[C@H](C(=O)O)[C@H]1O; Hyp = O=C(O)[C@@H]1C[C@@H](O)CN1

Key:
Assay type in all cases: in vivo
[1] = Toxicokinetic evaluation (plasma) after subcutaneous injection in cynomolgus monkeys
Protocol: (§1) Dose levels were 30, 60, and 120 mg/kg/dose for Groups 2, 3, and 4, respectively. […] The dose volumes were 1.2, 0.3, 0.6, and 1.2 mL/kg spread evenly over 4, 1, 2, and 4 dose sites for Groups 1-4, respectively, on each day of dosing. The control and 120 mg/kg/dose groups each consisted of 5 males and 5 females, and the 30 and 60 mg/kg/dose groups each consisted of 3 males and 3 females.
The animals were observed twice daily for mortality and moribundity. Clinical examinations were performed once daily for at least 6 consecutive days, including the day of randomization, prior to randomization, prior to dosing, 1-2 hours postdosing, once daily on nondosing days, and once daily during the recovery period. Detailed physical examinations were performed at least weekly during the acclimation period until randomization, on the day of randomization, weekly (±2 days) during the study period, and on the day of the scheduled necropsies. Injection site (IS) observations were performed prior to dosing (dose sites that were utilized on that day of dosing), 1-2 hours postdosing (dose sites that were utilized on that day of dosing), once daily on nondosing days (dose sites that had been previously been utilized), and twice weekly during the recovery period. Individual body weights were recorded weekly (±2 days). Individual body weights were collected at least weekly during the acclimation period until randomization, on the day of randomization, Study Day 0 (prior to dosing), weekly (2±days) during the study period, on the day prior to the day of the scheduled necropsies (nonfasted) and on the day of the scheduled necropsies (fasted). Clinical pathology parameters (hematology, coagulation, serum chemistry, and urinalysis) were analyzed during acclimation prior to randomization (Study Day −15), and on the day of the primary (Study Day 17) and recovery (Study Day 45) necropsies. Blood samples for toxicokinetic evaluation were collected from all animals/sex/group/time point prior to dose administration and at approximately 1, 2, 4, 8, 24, 48, and 72 hours after dose administration on Study Days 0 and 12. Complete necropsies were performed on all animals, and selected organs were weighed at the scheduled necropsies. Selected tissues were examined microscopically from all animals. Fingernail, toenail, nail bed, and abdominal skin samples were collected from all animals at the scheduled necropsies for bioanalytical analysis.

[2] = system: T. mentagrophytes ATCC 24953; experiment: Clinical evaluation of infected skin, T. mentagrophytes dermatophytosis guinea pig model, Example 1; details: for Percent Efficacy Clinical: evaluated study day 10, relative to vehicle control
Protocol: (§2) A request was made to the Animal Resource Center (ARC) at Case Western Reserve University to order the required number of male albino Harlan-Sprague-Dawley Guinea-Pigs (San Diego, Calif.) with a body weight of 450-500 g. Animals were allowed to acclimate for a minimum of 5 days prior to use. Environmental controls for the animal room were set to maintain a temperature of 16 to 22° C., a relative humidity of 30-70%, and a 12:12 light-dark cycle.
(§3) T. mentagrophytes ATCC 24953 was used as the infecting fungus. This strain was selected because it can cause skin infection and results in inflammatory reaction.
(§4) T. mentagrophytes (from frozen stock) was sub-cultured on Potato Dextrose Agar plates and incubated at 30° C. for 5-7 days. The colonies were scraped from the plates using sterile normal saline (NaCl 0.85%) solution. After washing for three times with sterile saline the conidia were re-suspended in the same solution. Ten-fold dilutions of conidia suspension were prepared and counted using a hemacytometer. Working suspension of conidia was prepared at a final concentration of 1×10^7 Colony Forming Units (CFUs)/100 μL in normal saline.
(§5) Each animal was anesthetized with a cocktail of xylazine and ketamine: 0.2 mL intramuscularly. Using an electric shaver, hair was clipped on left side of the guinea pig back. A closer shave was done with a disposable razor. Using a stencil, a square of 2.5 cm×2.5 cm was marked. The marked skin area was abraded with sterile fine grit sandpaper. A cell suspension containing 1×10^7 conidia in 100 μL was applied and rubbed thoroughly on the abraded skin.
(§6) Beginning two hours post inoculation, animals were treated subcutaneously (SQ) for CD101 and orally (PO) terbinafine once daily for a period of nine days, or once a week on days 1 and 8.
(§7) Study Day 1: Infected the animals with T. mentagrophytes and begin treatments.
(§8) Study Day 9 (treatment day 9): End treatments.
(§9) Study Day 10: Clinical evaluation of the four quadrants in the marked area was done. Hair samples were obtained from each quadrant (10 per quadrant). Hairs were planted in Potato Dextrose Agar, and incubated for 48 h for mycological evaluation. Procedures for clinical and mycological evaluations are described below.
(§10) CD101 was administered SQ in 0.3 mL, while the terbinafine was given orally in 0.3 mL. Vehicle treated group was also included.
Clinical assessment of local changes of the infected skin area was scored as follows:
1=Few slightly erythematous places on the skin
2=Well-defined redness, swelling with bristling hairs.
3=Large areas or marked redness incrustation, scaling, bald patches, ulcerated in places.
4=Partial damage to the integument and loss of hair
5=Extensive damage to the integument and complete loss of hair at the site of infection.
Any other local skin reactions were noted. The assessment of clinical evaluation in the change of scores per treatment group is expressed as percentage relative to the vehicle control group of animals using the following formula:
where, T=Scores in the test group. K=Scores in the untreated control

[3] = Mortality, clinical observations and body weights after subcutaneous injection in cynomolgus monkeys; details: 30, 60, 120 mg/kg/dose SC once every 3 days (5 doses)
Protocol: as §1
The animals were observed twice daily for mortality and moribundity. Clinical examinations were performed once daily for at least 6 consecutive days, including the day of randomization, prior to randomization, prior to dosing, 1-2 hours postdosing, once daily on nondosing days, and once daily during the recovery period. Detailed physical examinations were performed at least weekly during the acclimation period until randomization, on the day of randomization, weekly (±2 days) during the study period, and on the day of the scheduled necropsies. […] Individual body weights were recorded weekly (±2 days). […] Clinical pathology parameters (hematology, coagulation, serum chemistry, and urinalysis) were analyzed during acclimation prior to randomization (Study Day −15), and on the day of the primary (Study Day 17) and recovery (Study Day 45) necropsies. […]

[4] = system: T. mentagrophytes ATCC 24953; experiment: Hair root invasion test (mycological evaluation), T. mentagrophytes dermatophytosis guinea pig model, Example 1; details: evaluated study day 10, relative to vehicle control
Protocol: as §2, §3, §4, §5, §6, §7, §8, §9, §10
Hair samples were removed with a sterile forceps from four quadrants. Ten hair samples from each quadrant were inoculated onto the corresponding quadrant on the Potato Dextrose agar plate and incubated at 30° C. for 2 days. The fungal growth at the hair root was examined under a stereomicroscope. The effectiveness of a compound in reducing the number of mycologically positive hair sample per treated group is expressed as percentage relative to the vehicle control group of animals using the following formula:
where, T=Positive hair in the test group, K=Positive hair in the Untreated control.

[5] = 35 mg/kg SQ daily for nine days
[6] = 35 mg/kg SQ once a week (days 1 and 8)

With `CCCCCOc1ccc(-c2ccc(-c3ccc(C(=O)N[C@H]4C[C@@H](O)[C@@H](OCC[N+](C)(C)C)NC(=O)[C@@H]5[C@@H](O)[C@@H](C)CN5C(=O)[C@H]([C@@H](C)O)NC(=O)[C@H]([C@H](O)[C@@H](O)c5ccc(O)cc5)NC(=O)[C@@H]5C[C@@H](O)CN5C(=O)[C@H]([C@@H](C)O)NC4=O)cc3)cc2)cc1` [CD101] ({pTerphenylCO(4''-OnC5H11)}-[Orn(4R-OH,5R-OCH2CH2NMe3+)]T[Hyp][hTyr(3S-OH,4S-OH)]T[Pro(3S-OH,4S-Me)]; lactam 1-C) the “combined accumulation ratio (plasma)” value ([1]; 30 mg/kg/dose SC once every 3 days, males and females combined) was 3.18, the “combined accumulation ratio (plasma)” value ([1]; 60 mg/kg/dose SC once every 3 days, males and females combined) was 2.70 and the “combined accumulation ratio (plasma)” value ([1]; 120 mg/kg/dose SC once every 3 days, males and females combined) was 2.67. For the same compound, the “time by which concentrations reached maximum or near maximum observed values” ([1]; Study Day 0, postdose, SC) was at most 8 h, the “increase of combined exposure (AUC0-72 and Cmax) over a 4-fold dose change” value ([1]; Study Day 12, 30 to 120 mg/kg/dose SC) was “approximately 3 fold” and the “predose concentration on Study Day 12 relative to Study Day 0 Cmax” value ([1]; Study Day 12 predose, SC once every 3 days) was “approximately 2 fold”. The Cmax ([1]; both sexes, cynomolgus monkey, plasma, range across the 30 to 120 mg/kg groups, males and females combined, SC) was 21000 to 65100 ng/mL, the AUC(0-t) ([1]; both sexes, cynomolgus monkey, plasma, range across the 30 to 120 mg/kg groups, males and females combined, SC, read-out: AUC0-72) was 1360 to 4320 µg·h/mL and the “Percent Efficacy Clinical” value [2, 5] was 84.0%. The “Percent Efficacy Clinical” value [2, 6] was 78.7%, the “clinical signs versus vehicle control group” value ([2]; guinea pigs, 35 mg/kg SQ daily and weekly) was “fewer clinical signs than the vehicle control group beginning on day 5 post inoculation” and the injection site reaction ([2]; guinea pigs, 35 mg/kg SQ daily or once a week) was “no bruising or redness was noted at the injection site”. The survival [3] was “All animals survived to the scheduled necropsies”, the “test article-related clinical observations and effects on body weights” value [3] was “no test article-related clinical observations or effects on body weights” and the “Percent Efficacy Mycological” value [4, 5] was 88.0%. The “Percent Efficacy Mycological” value [4, 6] was 85.5%.
